Test results as given in patent US20170253601A1, “Substituted Pyrrolidine Compounds” (EPIZYME, INC., priority 2014, published 2017).

target: T1, SMYD2 (Homo sapiens, UniProt Q9NRG4); experiment: SMYD2 Biochemical Assay (3H-SAM, biotinylated peptide substrate, Flashplate); conditions: IC50 values are an average of n = 1 to n = 50; read-out: SMYD2 Biochem IC50 (μM)*
T1 construct: Full length SMYD2 (NP 064582.2) was cloned; His6 (N, cleaved yes); FLAG (N); made in house; host or cells: Sf9 insect cells
T1 sequence (Q9NRG4 whole entry): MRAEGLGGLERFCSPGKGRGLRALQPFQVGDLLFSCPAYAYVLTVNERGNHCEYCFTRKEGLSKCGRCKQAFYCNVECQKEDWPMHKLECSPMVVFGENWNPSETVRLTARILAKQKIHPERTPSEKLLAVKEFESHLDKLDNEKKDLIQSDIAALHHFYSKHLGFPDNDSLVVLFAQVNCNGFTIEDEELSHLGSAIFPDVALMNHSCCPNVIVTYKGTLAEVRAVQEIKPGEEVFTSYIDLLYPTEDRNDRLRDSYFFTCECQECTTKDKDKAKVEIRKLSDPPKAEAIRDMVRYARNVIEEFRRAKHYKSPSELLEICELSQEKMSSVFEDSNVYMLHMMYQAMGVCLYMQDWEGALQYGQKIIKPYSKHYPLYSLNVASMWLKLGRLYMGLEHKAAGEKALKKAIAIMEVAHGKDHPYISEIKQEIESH
Procedure, shortened: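 Full-length His/FLAG-tagged SMYD2 expressed in Sf9 cells with tag cleaved, 1.5 nM, pre-incubated 30 min at room temperature with compound, then 10 nM 3H-SAM and 60 nM biotinylated peptide added. Buffer 20 mM Bicine pH 7.6, 1 mM TCEP, 0.005% BSG, 0.002% Tween20, 2% DMSO. Stopped with 600 uM cold SAM; 3H-peptide captured on streptavidin Flashplate; IC50 by curve fit.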

IC50, 2.46 µM:
C[C@H]1CN(CCc2ccccc2)C[C@H]1NC(=O)c1cc(C2CC2)on1 (racemic) [compound 291, (±)-cis-5-cyclopropyl-N-[4-methyl-1-(2-phenylethyl)pyrrolidin-3-yl]-1,2-oxazole-3-carboxamide]

IC50, 10.5 µM:
C[C@H]1CN(Cc2ccc(S(C)(=O)=O)cc2)C[C@H]1NC(=O)c1cc(C2CC2)on1 (racemic) [compound 290, (±)-cis-5-cyclopropyl-N-{1-[(4-methane-sulfonylphenyl)methyl]-4-methylpyrrolidin-3-yl}-1,2-oxazole-3-carboxamide]

IC50, 9.59 µM:
CC(C)N1C[C@H](C)[C@H](NC(=O)c2cc(C(F)F)on2)C1 (racemic) [compound 300, (±)-cis-5-(difluoro-methyl)-N-[4-methyl-1-(propan-2-yl)pyrrolidin-3-yl]-1,2-oxazole-3-carboxamide]

IC50, > 50 µM:
C[C@@H]1CN(c2cnccn2)C[C@H]1NC(=O)c1cc(C2CC2)on1 (racemic) [compound 292, (±)-trans-5-cyclopropyl-N-[4-methyl-1-(pyrazin-2-yl)pyrrolidin-3-yl]-1,2-oxazole-3-carboxamide]
C[C@@H]1CN(CC(=O)N2CCCC2)C[C@H]1NC(=O)c1cc(C2CC2)on1 (racemic) [compound 293, (±)-trans-5-cyclopropyl-N-{4-methyl-1-[2-oxo-2-(pyrrolidin-1-yl)ethyl]pyrrolidin-3-yl}-1,2-oxazole-3-carboxamide]
C[C@@H]1CN(CC(=O)N2CCN(C)CC2)C[C@H]1NC(=O)c1cc(C2CC2)on1 (racemic) [compound 294, (±)-trans-5-cyclopropyl-N-{4-methyl-1-[2-(4-methylpiperazin-1-yl)-2-oxoethyl]pyrrolidin-3-yl}-1,2-oxazole-3-carboxamide]
CC(=O)Nc1ccccc1N1C[C@@H](C)[C@H](NC(=O)c2cc(C3CC3)on2)C1 (racemic) [compound 295, (±)-trans-5-cyclopropyl-N-[1-(2-acetamido-phenyl)-4-methylpyrrolidin-3-yl]-1,2-oxazole-3-carboxamide]
C[C@@H]1CN(c2ccccc2)C[C@H]1NC(=O)c1cc(C2CC2)on1 (racemic) [compound 296, (±)-trans-5-cyclopropyl-N-(4-methyl-1-phenyl-pyrrolidin-3-yl)-1,2-oxazole-3-carboxamide]
C[C@@H]1CN(c2cccc(Cl)c2)C[C@H]1NC(=O)c1cc(C2CC2)on1 (racemic) [compound 297, (±)-trans-N-[1-(3-chloro-phenyl)-4-methyl-pyrrolidin-3-yl]-5-cyclopropyl-1,2-oxazole-3-carboxamide]
C[C@@H]1CN(c2ccc(Cl)cc2)C[C@H]1NC(=O)c1cc(C2CC2)on1 (racemic) [compound 298, (±)-trans-N-[1-(4-chloro-phenyl)-4-methyl-pyrrolidin-3-yl]-5-cyclopropyl-1,2-oxazole-3-carboxamide]
COc1ccc(N2C[C@@H](C)[C@H](NC(=O)c3cc(C4CC4)on3)C2)cc1 (racemic) [compound 299, (±)-trans-5-cyclopropyl-N-[1-(4-methoxyphenyl)-4-methylpyrrolidin-3-yl]-1,2-oxazole-3-carboxamide]
C[C@H]1CN(c2ccccc2Cl)C[C@H]1NC(=O)c1cc(C2CC2)on1 (racemic) [compound 301, (±)-cis-N-[1-(2-chloro-phenyl)-4-methyl-pyrrolidin-3-yl]-5-cyclo-propyl-1,2-oxazole-3-carboxamide]
C[C@H]1CN(c2cnccn2)C[C@H]1NC(=O)c1cc(C2CC2)on1 (racemic) [compound 302, (±)-cis-5-cyclopropyl-N-[4-methyl-1-(pyrazin-2-yl)pyrrolidin-3-yl]-1,2-oxazole-3-carboxamide]
C[C@H]1CN(CC(N)=O)C[C@H]1NC(=O)c1cc(C2CC2)on1 (racemic) [compound 303, (±)-cis-N-[1-(carbamoyl-methyl)-4-methyl-pyrrolidin-3-yl]-5-cyclo-propyl-1,2-oxazole-3-carboxamide]
